What was measured:
[1] = tested on: human peripheral blood-derived M2-like macrophages; assay: Polarization test of human peripheral blood-derived M2-like macrophages (cytokine bead assay); assay type: cell-based; settings: 3 μM, 1 day, culture supernatant
Description: (§1) Human peripheral blood-derived CD14-positive monocytes that had been cryopreserved in advance were awake and seeded in a 24-well tissue culture plate at 2×10^5 cells/well in 500 μL of basal medium (RPMI, 10% fetal bovine serum, 50 ng/mL M-CSF) and cultured for 3 days in a 37° C., 5% CO2 incubator, after which 500 μL of basal medium was further added, and the cells were cultured for 3 days. The medium was then replaced with 500 μL of M2-like macrophage differentiation induction medium prepared by adding 50 ng/mL IL-4, 50 ng/mL IL-6, 50 ng/mL IL-10, and 50 ng/mL IL-13 to the basal medium, and the cells were cultured for 2 days.
A Telratolimod solution or CHP:Telratolimod solution adjusted to a final concentration of 3 μM in terms of Telratolimod was added to the M2-like macrophages prepared in Test Example 11, followed by incubation for 1 day, and TNF-α, IL-1β, IL-6, IL-12p40 (p40 subunit of IL-12), IL-23, and CXCL10 in the culture supernatant were measured using a flow cytometry bead assay kit (LEGENDplex™, BioLegend). The control was supplemented with only medium.

[2] = Blood concentration changes in mouse allogeneic tumor transplantation model; assay type: in vivo, mice (C57BL/6JJmsSlc, female); settings: 84.5 μg via tail vein injection, MC38-bearing mice, serum 1 min to 6 hours
Description: (§2) A mouse allogeneic tumor transplantation model was prepared by intradermally administering 10^6 cells of the mouse colon cancer cell line MC38 into the dorsal skin of mice (C57BL/6JJmsSlc, female). Mice on day 7 after cell administration were used. 84.5 μg of CHP:Telratolimod prepared in Example 2 or Telratolimod dissolved in a solubilizing solvent (17.1% polyethylene glycol 300, 4.3% Tween 80, and 8.6% polyoxyethylene hydrogenated castor oil) was administered via tail vein injection, and changes in the concentration of Telratolimod in the blood were measured. Blood was collected from 5 mice per group. After each test drug was administered via tail vein injection, 80 μL of isopropyl alcohol was added to 20 μL of serum collected after 1 minute, 30 minutes, 1 hour, 2 hours, and 6 hours, and bead crushing was performed for 1 minute using a 5 mm diameter stainless steel ball. Further, 400 μL of an 80% isopropyl alcohol and 20% acetonitrile solution was added and mixed, followed by sonication for 3 minutes, and centrifugation at 12000 g for 5 minutes to collect the supernatant. The collected supernatant was analyzed by LS-MS/MS to measure the Telratolimod concentration. […]

[3] = tested on: human peripheral blood-derived TAMs (phagocytosis of HeLa cells); assay: Cancer cell phagocytosis test of human peripheral blood-derived TAMs; assay type: cell-based; settings: 10 μM in terms of Telratolimod, 2 days, doxorubicin-treated HeLa cells, flow cytometry
Description: HeLa cells were labeled with fluorescent label 1 (CellTracker Green CMTPX Dye, ThermoFisher) for 30 minutes, then washed twice with PBS(−), and cultured overnight in medium (RPMI supplemented with 10% fetal bovine serum) containing 1.25 μM doxorubicin.
(§3) TAMs were prepared in the same manner as in Test Example 1, and Telratolimod or CHP:Telratolimod adjusted to a final concentration of 10 μM in terms of Telratolimod was added to the basal medium, followed by incubation for 2 days. After labeling with fluorescent labeling agent 2 (CellTracker Red CMTPX Dye, ThermoFisher) for 30 minutes, the cells were washed twice with PBS(−). The doxorubicin-treated HeLa cells were added at a half ratio to the TAMs and co-cultured overnight. The cells were then harvested, and the number of cells co-positive for fluorescent labels 1 and 2 was determined by flow cytometry. The control was supplemented with only medium.

cytokines in serum = assay: Evaluation of cytokine release in mouse allogeneic tumor transplantation model; assay type: in vivo, mice (C57BL/6JJmsSlc, female); settings: 84.5 μg i.v., blood after 2 hours, MC38-bearing mice
Description: The allograft model mice used were 10 days after 10^6 cells of the mouse colorectal cancer cell line MC38 were administered intradermally into the dorsal skin of mice (C57BL/6JJmsSlc, female). The Telratolimod solution prepared in Test Example 4 and the CHP:Telratolimod solution prepared in Example 2 were each administered (amount of Telratolimod: 84.5 μg) via tail vein injection to 5 mice per group, and blood was collected after 2 hours. The serum was obtained by centrifugation, and changes in the amount of cytokines were measured using LEGENDplex Mouse Inflammation Panel (BioLegend). Significance tests were performed using one-way ANOVA (*P<0.05, **P<0.01, ***P<0.001, ****P<0.0001).

reticulocytes = assay: Blood test in mouse allogeneic tumor transplantation model; assay type: in vivo; settings: 84.5 μg i.v. on days 7, 9, 11; blood 1 day after final administration
Description: 10^6 cells of the mouse colorectal cancer cell line MC38 were administered intradermally into the dorsal skin of mice (C57BL/6JJmsSlc, female). After 7 days, 9 days, and 11 days, the Telratolimod solution prepared in Test Example 4 and the CHP:Telratolimod solution prepared in Example 2 were each administered (amount of Telratolimod: 84.5 μg) via tail vein injection to 5 mice per group. One day after the final administration, blood was collected, and changes in red blood cell and reticulocyte counts were measured. Significance tests were performed using one-way ANOVA (*P<0.05, **P<0.01, ***P<0.001, ****P<0.0001).

[4] = tested on: mouse colon cancer cell line MC38; assay: Antitumor evaluation in mouse allogeneic tumor transplantation model (1); assay type: in vivo, mice (C57BL/6JJmsSlc, female); settings: MC38, 84.5 μg Telratolimod i.v. on days 7, 9, 11, 14, 16, 18; day 19
Description: as §2, with “Further, 400 μL of an 80% isopropyl alcohol and 20% acetonitrile solution was added and mixed, followed by sonication for 3 minutes, and centrifugation at 12000 g for 5 minutes to collect the supernatant.” left out
An MC38 mouse allogeneic tumor transplantation model was prepared in the same manner as in Test Example 4. […] Tumor sizes were measured on days 7, 9, 11, 14, 16, 18, and 19. The tumor volume was calculated by (long axis×short axis×short axis)/2. […]

[5] = tested on: human peripheral blood-derived TAMs; assay: Polarization test of human peripheral blood-derived TAMs (TNF-α ELISA); assay type: cell-based; settings: 30 μM in terms of Telratolimod, 2 days incubation, culture supernatant
Description: as §1, with “TAM” for “M2-like macrophage”, “adding 10% fetal bovine serum,” for “adding”, “IL-10,” for “IL-10, and”, “IL-13, and 5% human AB type male donor defibrinated serum (Veritas)” for “IL-13”, “a separately prepared culture supernatant of human cancer cells,” for “the basal medium,”
A Telratolimod solution or CHP:Telratolimod solution adjusted to a final concentration of 30 μM in terms of Telratolimod was added to the TAM prepared in Test Example 1, followed by incubation for 2 days, and TNF-α in the culture supernatant was measured by ELISA (BioLegend). The control was supplemented with only medium.

[6] = Examination of encapsulation of TLR7 and TLR8 agonists in CHP nanogel (Example 1); assay type: physicochemical; settings: CHP in 6 M urea in PBS(−), stepwise dialysis against PBS(−)
Description: Nine TLR7 and TLR8 agonists (Telratolimod, Motolimod, Vesatolimod, Resiquimod, Imiquimod, CL075, CU-CPT17e, CU-CPT9a, and PF-4878691) were examined for whether they could be encapsulated in CHP nanogel. CHP was dissolved in a 6 M urea solution in PBS(−), and a compound solution was added thereto. Then, stepwise dialysis was performed against PBS(−).

[7] = tested on: mouse colorectal cancer cell line CT26; assay: Antitumor evaluation in mouse allogeneic tumor transplantation model (2); assay type: in vivo, mice (BALB/cCrSlc, female); settings: Telratolimod 42 μg i.v. days 7, 9, 11, 14, 16, 18, anti-PD-1 antibody 100 μg i.p. days 7, 11, 14, 18
Description: A mouse allogeneic tumor transplantation model was prepared by intradermally administering 10^6 cells of the mouse colorectal cancer cell line CT26 into the dorsal skin of mice (BALB/cCrSlc, female). On days 7, 9, 11, 14, 16, and 18 after cell transplantation, the CHP:Telratolimod solution prepared in Example 2 and the Telratolimod solution prepared in Test Example 4 were each administered via tail vein injection, and on days 7, 11, 14, and 18 after cell transplantation, an anti-PD-1 antibody (RMP1-14, Bio X Cell) solution was administered intraperitoneally, to 5 mice per group (amount of Telratolimod: 42 μg, amount of anti-PD-1 antibody: 100 μg). One group received a combination of the CHP:Telratolimod solution and the anti-PD-1 antibody. Tumor sizes were measured on days 7, 9, 11, 14, 16, 18, and 21. The tumor volume was calculated by (long axis×short axis×short axis)/2. The negative control is an untreated group.

[8] = tested on: human peripheral blood-derived M2-like macrophages (phagocytosis of HeLa cells); assay: Cancer cell phagocytosis test of human peripheral blood-derived M2-like macrophages; assay type: cell-based; settings: 10 μM in terms of Telratolimod, 1 day, flow cytometry
Description: HeLa cells were labeled with fluorescent label 1 (CellTracker Green CMTPX Dye, ThermoFisher) for 30 minutes, then washed twice with PBS(−), and cultured overnight in medium (RPMI supplemented with 10% fetal bovine serum) containing 2.5 μM doxorubicin.
as §3, with “Telratolimod” for “TAMs were prepared in the same manner as in Test Example 1, and Telratolimod”, “and the M2-like macrophages prepared in Test Example 11 were incubated” for “followed by incubation”, “1 day.” for “2 days.”, “The” for “The doxorubicin-treated”, “M2-like macrophages” for “TAMs”

[9] = tested on: macrophages infiltrating into the tumors (MC38); assay: Evaluation of TAM polarization in mouse allogeneic tumor transplantation model; assay type: in vivo, mice; settings: MC38, 84.5 μg i.v. on days 7, 9, 11; tumors 1 day after final administration; flow cytometry
Description: An MC38 mouse allogeneic tumor transplantation model was prepared in the same manner as in Test Example 6, and on days 7, 9, and 11 after cell transplantation, the CHP:Telratolimod solution prepared in Example 2 and the Telratolimod solution prepared in Test Example 4 were each administered via tail vein injection to 5 mice per group (amount of Telratolimod: 84.5 μg). One day after the final administration, the tumors were excised, and macrophages infiltrating into the tumors were measured by flow cytometry. Significance tests were performed using one-way ANOVA (*P<0.05, **P<0.01, ***P<0.001, ****P<0.0001).

**Q.** For `CCCCCCCCCCCCCCCCCC(=O)NCCCCOn1c(CCCC)nc2c(N)nc3ccccc3c21` [Telratolimod], which CXCL10 [1] is on record?
**A.** 140 ± 20 pg/mL

**Q.** What about the IL-1β [1] of the same compound?
**A.** 2.3 ± 0.64 pg/mL

**Q.** And the IL-6 [1]?
**A.** 3100 ± 380 pg/mL

**Q.** And the IL-12p40 [1]?
**A.** 59 ± 22 pg/mL

**Q.** And the IL-23 [1]?
**A.** 1.4 ± 0.35 pg/mL

**Q.** And the TNF-α [1]?
**A.** 40 ± 7.3 pg/mL

**Q.** And the “blood concentration of Telratolimod over time” value [2]?
**A.** rapidly decreased within 30 minutes after administration

**Q.** And the Phagocytosis rate [3]?
**A.** 5.5%

**Q.** And the IFN-β in serum (cytokines in serum)?
**A.** rapid increases

**Q.** What about the IL-6 in serum (cytokines in serum) of the same compound?
**A.** rapid increases

**Q.** And the MCP-1 in serum (cytokines in serum)?
**A.** rapid increases

**Q.** What about the “change in reticulocytes (bone marrow toxicity indicator)” value (reticulocytes) of the same compound?
**A.** significant decrease

**Q.** What about the “growth inhibition compared to the solvent control” value [4] of the same compound?
**A.** 49%

**Q.** And the TNF-α [5]?
**A.** 700 pg/mL

**Q.** And the “whether the compound could be encapsulated in CHP nanogel and formed into a solution” value [6]?
**A.** could be stably encapsulated in the CHP nanogel and formed into a solution

**Q.** What about the “antitumor effect (tumor volume)” value [7] of the same compound?
**A.** limited

**Q.** And the Phagocytosis rate [8]?
**A.** 9.7%

**Q.** What about the “expression of ARG1 (M2-like macrophage marker)” value [9] of the same compound?
**A.** tended to decrease

**Q.** And the “expression of iNOS (M1-like macrophage marker)” value [9]?
**A.** significantly increased

Source: patent publication US12685779B2, “Complex” (UNITED IMMUNITY, CO., LTD., priority 2023, dated 2026)
